According to patent US11434242B2, “Dopamine-b-hydroxylase inhibitors” (BIAL-PORTELA & Cª, S.A., priority 2017, dated 2022):

Molecular target: T1, Dopamine beta hydroxylase (Homo sapiens, UniProt P09172)
T1 construct: 125 μl of plasma; tissue Instituto Português do Sangue Transplantação; host or cells: human plasma from healthy donors
T1 sequence (P09172 40-617 limits assumed): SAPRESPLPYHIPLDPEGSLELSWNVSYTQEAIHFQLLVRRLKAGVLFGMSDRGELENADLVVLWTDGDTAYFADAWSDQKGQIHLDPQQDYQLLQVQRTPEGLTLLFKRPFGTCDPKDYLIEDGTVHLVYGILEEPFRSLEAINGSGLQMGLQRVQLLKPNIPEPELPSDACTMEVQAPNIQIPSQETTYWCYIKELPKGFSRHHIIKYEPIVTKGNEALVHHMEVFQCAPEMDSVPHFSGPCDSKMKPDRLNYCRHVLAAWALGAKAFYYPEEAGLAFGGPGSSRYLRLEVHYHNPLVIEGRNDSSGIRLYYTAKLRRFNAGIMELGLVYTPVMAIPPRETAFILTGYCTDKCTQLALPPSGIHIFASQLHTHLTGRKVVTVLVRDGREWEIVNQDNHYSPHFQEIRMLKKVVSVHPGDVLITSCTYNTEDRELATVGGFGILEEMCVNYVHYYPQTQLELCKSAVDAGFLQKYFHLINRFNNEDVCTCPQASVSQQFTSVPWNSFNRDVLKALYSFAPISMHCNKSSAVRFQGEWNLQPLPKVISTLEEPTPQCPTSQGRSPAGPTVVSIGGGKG
Assay: Dopamine beta hydroxylase activity in human plasma
Format: biochemical
Conditions: for Plasma (0.01 μM), activity in % of control: inhibitor 0.01 μM; for Plasma (0.1 μM), activity in % of control: inhibitor 0.1 μM; for Plasma (1 μM), activity in % of control: inhibitor 1 μM
Procedure: Furthermore, the ability of a compound to inhibit DβH activity may be assessed in human plasma using the following assay. […]. Dopamine beta hydroxylase activity in human plasma was measured by the method of Nagatsu and Udenfriend (Nagatsu, T. and Udenfriend, S. “Photometric assay of dopamine-μ-hydroxylase activity in human blood.” Clin. Chem. 18(9) 980-983, 1972) with minor modifications. Catalase, N-ethylmaleimide, tyramine, disodium fumarate, pargyline, sodium acetate, ascorbic acid, copper sulfate and octopamine were obtained from Sigma Chemical Co., St. Louis, Mo. 63178. Human plasma samples were obtained from healthy donors (Instituto Português do Sangue Transplantação, Centro Sangue Transplantação, Porto, Portugal). From date of collection, plasma was stored at −80° C. until use. Test compounds were initially prepared in dimethyl sulfoxide at a concentration of 10 mM and diluted in dimethyl sulfoxide to the required concentrations. Test compounds were further diluted in ultrapure water to a concentration 20-fold to that of the final concentration to be tested. Final concentrations of test compounds were 10, 100 and 1000 nM. The various reagents used to make up the incubation buffer were premixed and consisted of the following components: sodium acetate buffer (1 M, pH 5.0, 18 ml), sodium fumarate (0.2 M, 4.5 ml), ascorbic acid (0.2 M, 4.5 ml, freshly prepared), pargyline (20 mM, freshly prepared, 4.5 ml), N-ethylmaleimide (0.2 M, 4.5 ml), catalase (10 000 U/ml, 9 ml), copper sulfate (20 μM, 4.5 ml) and 4.5 ultrapure water. The standard incubation mixture (total volume, 950 μl) contained: 50 μL of compound or vehicle (dimethyl sulfoxide 2%); 700 μL of incubation buffer; 125 μl of plasma (or saline for blank reaction or standard curve); 75 μl of saline. The reaction mixture was placed in water bath, shaking at 37° C. and pre-incubated for 10 minutes. Tyramine (0.5 M) was added and incubation proceeded for 45 minutes. The reaction contents were exposed to air. A sample of enzyme preparation (with 125 μl of plasma) that had been added perchloric acid 2 M at the end of the pre-incubation period was used as blank. A blank for each of the tested compounds was used. For octopamine standard curve, perchloric acid 2 M was replaced by increasing concentrations of octopamine prepared in perchloric acid 2 M (0.5, 1, 2.5, 5, 7.5, 10, 15, 20 μg/ml, final concentration). The incubation was stopped by adding 200 μl of 2 M molar perchloric acid, and the mixture was centrifuged at 9000 g for 5 min. The supernatant fluid (800 μL) was transferred to a column (SPE cartridge ISOLUTE SCX-3, 100 mg) and centrifuged at 150 g for 2 min. The column was washed two more times with 0.5 ml of ultrapure water by centrifuging at 150 g for 2 min. The adsorbed octopamine was eluted twice with 0.3 ml of 4 M ammonium hydroxide by centrifuging at 150 g for 2 min. Octopamine in the eluate was then converted to p-hydroxybenzaldehyde by adding 200 μl of sodium periodate (2%) and incubating for 6 min. Excess periodate was than reduced by adding 200 μl of sodium metabisulfite (10%). Absorbance was measured at […] in a 96-well plate by use of a SpectraMAX plus 384 (Molecular Devices) with software SOFTmax® PRO Software 5.3 spectrophotometer. Absorbance was linear with octopamine concentration from 0.5 to 20 μg/ml. Dopamine beta hydroxylase activity is determined as nmol of octopamine formed/ml of plasma/hour and effect of compounds is presented as % control.
Results are reported in the table below as activity in % of control at the inhibitor concentration tested.

## Cn1c(CC(=O)NC2(C#N)CC2)c2n(c1=S)C[C@@H](c1c(F)ccc(F)c1F)C2 [Example 254, (R)—N-(1-cyanocyclopropyl)-2-(2-methyl-3-thioxo-6-(2,3,6-trifluorophenyl)-2,5,6,7-tetrahydro-3H-pyrrolo[1,2-c]imidazol-1-yl)acetamide]
  Plasma (0.01 μM), activity in % of control: 81.4 % of control
  Plasma (0.1 μM), activity in % of control: 62.2 % of control

## CS(=O)(=O)C1CCN(CCc2[nH]c(=S)n3c2C[C@H](c2c(F)ccc(Br)c2F)C3)CC1 [Example 179, (R)-6-(3-bromo-2,6-difluorophenyl)-1-(2-(4-(methylsulfonyl)piperidin-1-yl)ethyl)-2,5,6,7-tetrahydro-3H-pyrrolo[1,2-c]imidazole-3-thione]
  Plasma (0.01 μM), activity in % of control: 93.5 % of control
  Plasma (0.1 μM), activity in % of control: 48.8 % of control

## O=C(Cc1[nH]c(=S)n2c1C[C@@H](c1c(F)ccc(Br)c1F)C2)N1CCC2(CCOC2)CC1 [Example 165, (S)-2-(6-(3-bromo-2,6-difluorophenyl)-3-thioxo-2,5,6,7-tetrahydro-3H-pyrrolo[1,2-c]imidazol-1-yl)-1-(2-oxa-8-azaspiro[4.5]decan-8-yl)ethan-1-one]
  Plasma (0.01 μM), activity in % of control: 74.3 % of control
  Plasma (0.1 μM), activity in % of control: 14.8 % of control

## CN(CCc1[nH]c(=S)n2c1[C@@H]1C[C@]1(c1cc(Br)ccc1F)C2)C1CCCC1.F [Example 190, (5aS,6aR)-5a-(5-bromo-2-fluorophenyl)-1-(2-(cyclopentyl(methyl)amino)ethyl)-5,5a,6,6a-tetrahydrocyclopropa[3,4]pyrrolo[1,2-c]imidazole-3(2H)-thione hydrofluoride]
  Plasma (0.01 μM), activity in % of control: 68.6 % of control
  Plasma (0.1 μM), activity in % of control: 19.9 % of control

## CS(=O)(=O)C1CCN(C(=O)Cc2[nH]c(=S)n3c2C[C@@H](c2c(F)ccc(Br)c2F)C3)CC1 [Example 123, (S)-2-(6-(3-bromo-2,6-difluorophenyl)-3-thioxo-2,5,6,7-tetrahydro-3H-pyrrolo[1,2-c]imidazol-1-yl)-1-(4-(methylsulfonyl)piperidin-1-yl)ethan-1-one]
  Plasma (0.01 μM), activity in % of control: 51.9 % of control
  Plasma (0.1 μM), activity in % of control: 6.3 % of control

## Cl.Cn1c(CCN2CCOCC2)c2n(c1=S)C[C@@H](c1c(F)c(F)cc(F)c1F)C2 [Example 257, (R)-2-methyl-1-(2-morpholinoethyl)-6-(2,3,5,6-tetrafluorophenyl)-2,5,6,7-tetrahydro-3H-pyrrolo[1,2-c]imidazole-3-thione Hydrochloride]
  Plasma (0.01 μM), activity in % of control: 105.9 % of control
  Plasma (0.1 μM), activity in % of control: 92.4 % of control

## Cn1c(CC(=O)NC2CCOCC2)c2n(c1=S)C[C@@]1(c3c(F)ccc(Cl)c3F)C[C@@H]21 [Example 423, 2-((5aS,6aR)-5a-(3-chloro-2,6-difluorophenyl)-2-methyl-3-thioxo-2,3,5,5a,6,6a-hexahydrocyclopropa[3,4]pyrrolo[1,2-c]imidazol-1-yl)-N-(tetrahydro-2H-pyran-4-yl)acetamide]
  Plasma (0.01 μM), activity in % of control: 18.5 % of control
  Plasma (0.1 μM), activity in % of control: 1.7 % of control

## CCCCN(C)C(=O)Cc1[nH]c(=S)n2c1C[C@@H](c1c(F)ccc(Br)c1F)C2 [Example 92, (S)-2-(6-(3-bromo-2,6-difluorophenyl)-3-thioxo-2,5,6,7-tetrahydro-3H-pyrrolo[1,2-c]imidazol-1-yl)-N-butyl-N-methylacetamide]
  Plasma (0.1 μM), activity in % of control: 37.5 % of control
  Plasma (1 μM), activity in % of control: 0.1 % of control

## Cn1c(CCNC(C)(C)C)c2n(c1=S)C[C@@H](c1c(F)ccc(F)c1F)C2 [Example 476, (R)-1-(2-(tert-butylamino)ethyl)-2-methyl-6-(2,3,6-trifluorophenyl)-2,5,6,7-tetrahydro-3H-pyrrolo[1,2-c]imidazole-3-thione Hydrofluoride]
  Plasma (0.01 μM), activity in % of control: 94.3 % of control
  Plasma (0.1 μM), activity in % of control: 64.8 % of control

## CN1CCC(NC(=O)Cc2c3n(c(=S)n2C)C[C@@H](c2c(F)ccc(F)c2F)C3)C1=O (stereo partly drawn) [Example 388, N-(1-methyl-2-oxopyrrolidin-3-yl)-2-((R)-2-methyl-3-thioxo-6-(2,3,6-trifluorophenyl)-2,5,6,7-tetrahydro-3H-pyrrolo[1,2-c]imidazol-1-yl)acetamide]
  Plasma (0.01 μM), activity in % of control: 80.8 % of control
  Plasma (0.1 μM), activity in % of control: 71.1 % of control

## Cn1c(CC(=O)NCC2CCOCC2)c2n(c1=S)C[C@@H](c1c(F)c(F)cc(F)c1F)C2 [Example 397, (R)-2-(2-methyl-6-(2,3,5,6-tetrafluorophenyl)-3-thioxo-2,5,6,7-tetrahydro-3H-pyrrolo[1,2-c]imidazol-1-yl)-N-((tetrahydro-2H-pyran-4-yl)methyl)acetamide]
  Plasma (0.01 μM), activity in % of control: 79.9 % of control
  Plasma (0.1 μM), activity in % of control: 24.1 % of control

## CS(=O)(=O)C1CCN(C(=O)Cc2[nH]c(=S)n3c2C[C@@H](c2c(F)ccc(Br)c2F)C3)C1 (stereo partly drawn) [Example 164, 2-((S)-6-(3-bromo-2,6-difluorophenyl)-3-thioxo-2,5,6,7-tetrahydro-3H-pyrrolo[1,2-c]imidazol-1-yl)-1-(3-(methylsulfonyl)pyrrolidin-1-yl)ethan-1-one]
  Plasma (0.01 μM), activity in % of control: 65.8 % of control
  Plasma (0.1 μM), activity in % of control: 17.1 % of control

## O=C(Cc1[nH]c(=S)n2c1C[C@@H](c1c(F)ccc(Cl)c1F)C2)NCC(F)(F)F [Example 113, (S)-2-(6-(3-chloro-2,6-difluorophenyl)-3-thioxo-2,5,6,7-tetrahydro-3H-pyrrolo[1,2-c]imidazol-1-yl)-N-(2,2,2-trifluoroethyl)acetamide]
  Plasma (0.01 μM), activity in % of control: 85.1 % of control
  Plasma (0.1 μM), activity in % of control: 25.6 % of control

## OCCc1[nH]c(=S)n2c1C[C@H](c1c(F)c(F)cc(F)c1F)C2 [Example 172, (R)-1-(2-hydroxyethyl)-6-(2,3,5,6-tetrafluorophenyl)-2,5,6,7-tetrahydro-3H-pyrrolo[1,2-c]imidazole-3-thione]
  Plasma (0.1 μM), activity in % of control: 46.3 % of control
  Plasma (1 μM), activity in % of control: 8.1 % of control

## CS(=O)(=O)NC(=O)Cc1[nH]c(=S)n2c1C[C@H](c1c(F)c(F)cc(F)c1F)C2 [Example 23, (R)—N-(methylsulfonyl)-2-(6-(2,3,5,6-tetrafluorophenyl)-3-thioxo-3,5,6,7-tetrahydro-2H-pyrrolo[1,2-c]imidazol-1-yl)acetamide]
  Plasma (0.1 μM), activity in % of control: 56.6 % of control
  Plasma (1 μM), activity in % of control: 8.8 % of control
